What was measured:
A549 = assay: Cytotoxicity against human A549 cells after 72 hrs by MTT assay; assay type: functional, cell-based; settings: A549, 72 h
[1] = Cytotoxicity against human U87 cells after 72 hrs by MTT assay; assay type: functional, cell-based, U-87MG ATCC; settings: U-87 MG
[2] = Cytotoxicity against human Hep3B cells after 72 hrs by MTT assay; assay type: functional, cell-based, Hep 3B2

SMILES: CC(C)=C1CC=C([C@H]2CC[C@]3(C)[C@@H]2CC[C@@H]2C4=C(CC[C@]23C)C(C)(C)[C@@H]2CC[C@H]4O2)C1=O [GYPENSAPOGENIN A]
- IC50 (A549): 71.2 µM
- IC50 [1]: > 100 µM
- IC50 [2]: 44.4 µM

SMILES: COc1cc([C@@H]2c3cc4c(cc3[C@@H](O[C@@H]3O[C@@H]5CO[C@@H](C)O[C@H]5[C@H](O)[C@H]3O)[C@H]3COC(=O)[C@H]23)OCO4)cc(OC)c1O [ETOPOSIDE]
- IC50 (A549): 23.8 µM
- IC50 [1]: 12.4 µM
- IC50 [2]: 6.7 µM

SMILES: CC(C)=C1CC=C([C@H]2CC[C@]3(C)[C@@H]2CC[C@@H]2[C@@]4(C)CC[C@H](O)C(C)(C)[C@@H]4CC[C@]23C)C1=O [GYPENSAPOGENIN C]
- IC50 (A549): 0.11 µM
- IC50 [1]: 0.58 µM
- IC50 [2]: > 100 µM

SMILES: CC(C)=CCC[C@](C)(O)[C@H]1CC[C@]2(C)[C@@H]1[C@H](O)C[C@@H]1[C@@]3(C)CC[C@H](O)C(C)(C)[C@@H]3CC[C@]12C
- IC50 [1]: 36.7 µM
- IC50 [2]: 14.7 µM

SMILES: CC(C)=C1CC([C@H]2CC[C@]3(C)[C@@H]2CC[C@@H]2C4=C(CC[C@]23C)C(C)(C)[C@@H]2CC[C@H]4O2)=CC1=O [GYPENSAPOGENIN B]
- IC50 (A549): > 100 µM
- IC50 [1]: > 100 µM
- IC50 [2]: > 100 µM

SMILES: CC(C)=C[C@H]1C=C([C@H]2CC[C@]3(C)[C@@H]2CC[C@@H]2[C@@]4(C)CC[C@H](O[C@@H]5O[C@H](CO)[C@@H](O)[C@H](O)[C@H]5O)C(C)(C)[C@@H]4CC[C@]23C)C(=O)O1
- IC50 (A549): > 100 µM
- IC50 [1]: > 100 µM
- IC50 [2]: > 100 µM

SMILES: CC(C)=C[C@H]1C=C([C@H]2CC[C@]3(C)[C@@H]2CC[C@@H]2[C@@]4(C)CC[C@H](O)C(C)(C)[C@@H]4CC[C@]23C)C(=O)O1 [GYPENSAPOGENIN D]
- IC50 (A549): > 100 µM
- IC50 [1]: > 100 µM
- IC50 [2]: > 100 µM

Reference: ChEMBL document CHEMBL1949562, “Triterpenes possessing an unprecedented skeleton isolated from hydrolyzate of total saponins from Gynostemma pentaphyllum” (Eur J Med Chem, 2012)
